IC50 data for 24 compounds are collected here from patent US8410150B2, “Inhibitors of carnitine palmitoyltransferase and treating cancer” (University Health Network, priority 2007, dated 2013).

SMILES strings stand for the structures. Where a name gives a salt, the structure may show the parent alone. Where only a bound is given, the exact number is not on record here.

This assay concerns the target T1, human CPT1A (Homo sapiens, UniProt P50416).
T1 construct: made in house; host or cells: Saccharomyces cerevisiae (pESC-trp) or cultured mammalian cells (pCDNA3.1); mitochondrial extract
T1 sequence (P50416 1-773): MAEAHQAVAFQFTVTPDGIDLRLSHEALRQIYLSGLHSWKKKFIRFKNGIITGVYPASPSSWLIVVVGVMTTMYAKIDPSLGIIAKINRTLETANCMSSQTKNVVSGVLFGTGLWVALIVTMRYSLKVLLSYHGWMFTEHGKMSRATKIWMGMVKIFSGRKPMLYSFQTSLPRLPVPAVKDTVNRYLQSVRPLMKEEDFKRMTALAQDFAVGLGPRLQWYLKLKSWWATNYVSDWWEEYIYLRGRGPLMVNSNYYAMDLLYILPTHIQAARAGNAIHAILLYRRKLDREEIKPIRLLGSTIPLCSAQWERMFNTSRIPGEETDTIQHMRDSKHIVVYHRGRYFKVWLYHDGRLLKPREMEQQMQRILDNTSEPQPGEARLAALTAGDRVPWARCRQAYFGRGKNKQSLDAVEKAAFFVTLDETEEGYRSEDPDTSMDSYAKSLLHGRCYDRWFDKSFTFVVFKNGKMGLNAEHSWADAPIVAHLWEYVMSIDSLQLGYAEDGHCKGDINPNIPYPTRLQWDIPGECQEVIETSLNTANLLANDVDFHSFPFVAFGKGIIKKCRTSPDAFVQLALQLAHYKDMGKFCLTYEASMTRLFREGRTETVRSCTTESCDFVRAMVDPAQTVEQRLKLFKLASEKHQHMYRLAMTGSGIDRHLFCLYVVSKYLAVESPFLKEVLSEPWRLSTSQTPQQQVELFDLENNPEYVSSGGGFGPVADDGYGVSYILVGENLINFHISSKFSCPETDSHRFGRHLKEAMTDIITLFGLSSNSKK
Kind of assay: Human CPT1A LC/MS assay. Format: biochemical. To be noted: human CPT1A LC/MS assay, dose response format. From the text: Nucleotide sequences encoding human CPT1 enzymes were individually cloned into the yeast expression vector pESC-trp at the Cla1 (5′ terminus) and Pac1 (3′ terminus) restriction sites by PCR amplification of the open reading frame using oligonucleotide primers designed to encode the wild-type CPT1 protein sequence. Standard molecular biology techniques were used to transform and express the CPT1 proteins in the yeast Saccharomyces cerevisiae. The yeast cells were lysed by enzymatic degradation of the cell wall by Zymolase, and the mitochondria were isolated by standard biochemical techniques. The integrity of the isolated mitochondria was monitored by determining the activity of succinate dehydrogenase in the mitochondrial preparations. The mitochondrial extracts were stored at −80° C. in buffer containing 10 mM HEPES pH 7.4 and 250 mM sucrose.
Human CPT1 (A, B, C) genes were additionally cloned into the pCDNA3.1 vector individually for expression in cultured mammalian cells. Cells expressing the exogenous CPT1A were identified and grown under standard conditions. Mammalian cells were harvested, and mitochondrial extracts prepared using standard biochemical methods. The mitochondrial extracts were stored at −80° C. in buffer containing 10 mM HEPES pH 7.4 and 250 mM sucrose.
Assays were performed in 96-well plate format. Each 100 μL reaction contained 40 mM KCl, 50 mM TrisHCl pH 7.5, and 250 mM mannitol (Assay Buffer), and 1.6 μg protein of an extract, 20 μM palmitoyl-CoA, 50 μM L-carnitine, and 10 ug/mL BSA. Reactions were incubated at room temperature and stopped after 10 minutes by extraction with 200 μL of water saturated n-butanol containing myristoyl carnitine (500 nM) as an internal standard. The samples were thoroughly mixed, and the phases separated by centrifugation. Samples were prepared for analysis with a 10 fold dilution of the n-butanol phase containing the reaction product palmitoyl carnitine into a 50:50 (acetonitrile:water) solvent for analysis. […] of prepared sample was separated on a Phenomenex Jupiter 5μ C4 reverse-phase column using an Agilent 1100 HPLC with a gradient from 50% acetonitrile (0.5% acetic acid) to 100% acetonitrile and quantified by detection with a Bruker Esquire 3000plus mass spectrometer. The abundance of the palmitoyl carnitine product was determined relative to the internal standard and the actual quantity of palmitoyl carnitine can be determined from a standard curve prepared using the n-butanol solution containing the internal standard.
Compounds were evaluated in two formats, a screening format, and a dose response format. The screening format was performed by adding 25 μL compound in 20% DMSO and Assay Buffer to 25 μL of extract containing […] and Assay Buffer, followed by a 10 minute incubation at room temperature. 50 μL of 40 μM palmitoyl-CoA in Assay Buffer was added to the reaction mixture, mixed and incubated for 10 minutes at room temperature. A negative control for activity was also performed where the carnitine was omitted from the reaction. A positive control for activity was also performed by omitting compound from the solution containing 20% DMSO and Assay Buffer. The reaction mixture was extracted and analyzed as described above. The inhibition by compound was determined by comparing the control relative activity to the relative activity observed in wells containing the compound. Relative activity was determined by subtracting the relative intensity (area palmitoyl carnitine/area myristoyl carnitine) observed in the negative control from the relative intensity observed in the experimental well, and dividing by the relative activity observed in the positive control.
[formula] Compound characterization by dose response format was performed using the above described assay conditions and a 16 point compound titration in 2 fold compound dilution steps. The DMSO concentration was kept constant at 20% (v/v) for all compound concentrations.
A word on the IC50: it is the concentration needed to halve the response being measured. On to `CCCCCCCCCc1ccc(NS(=O)(=O)N[C@H](CC(=O)[O-])C[N+](C)(C)C)cc1` [Example S105, (R)-3-(N-(4-nonylphenyl)sulfamoylamino)-4-(trimethylammonio)-butanoate], for which the half-maximal inhibitory concentration (IC50) was at most 1 µM.

The compound `CCCCCc1ccc(C#Cc2ccc(NS(=O)(=O)N[C@H](CC(=O)[O-])C[N+](C)(C)C)cc2)cc1` [Example S107, (R)-3-(N-(4-((4-pentylphenyl)ethynyl)phenyl)sulfamoylamino)-4-(trimethylammonio)butanoate] displayed an IC50 of 1 to 10 µM.

On to `Cc1cccc(C#Cc2ccc(S(=O)(=O)N[C@H](CC(=O)O)C[N+](C)(C)C)s2)c1` [Example S76, (R)-3-carboxy-N,N,N-trimethyl-2-(5-(m-tolylethynyl)thiophene-2-sulfonamido)propan-1-aminium 2,2,2-trifluoroacetate], for which the half-maximal inhibitory concentration (IC50) was 100 to 1000 µM.

Take `CCCCCCOc1cccc(OCCCCCN(C)S(=O)(=O)N[C@H](CC(=O)[O-])C[N+](C)(C)C)c1` [Example S109, (R)-3-(N-(5-(3-(hexyloxy)phenoxy)pentyl)-N-methylsulfamoylamino)-4-(trimethylammonio)butanoate]: the IC50 was at most 1 µM.

Turning to `CCCCCCC#Cc1cccc(NS(=O)(=O)N[C@H](CC(=O)[O-])C[N+](C)(C)C)c1` [Example S110, (R)-3-(N-(3-(oct-1-ynyl)phenyl)sulfamoylamino)-4-(trimethylammonio) butanoate], the IC50 lay within 10 to 100 µM.

Turning to `CCOc1ccc(OCc2ccc(C(=O)N[C@H](CC(=O)[O-])C[N+](C)(C)C)o2)cc1` [Example S68, (R)-3-(5-((4-ethoxyphenoxy)methyl)furan-2-carboxamido)-4-(trimethyl-ammonio)butanoate], the IC50 was at most 1 µM.

Consider `CCCCCc1ccc(C#Cc2ccc(S(=O)(=O)N[C@H](CC(=O)O)C[N+](C)(C)C)s2)cc1` [Example S82, (R)-3-carboxy-N,N,N-trimethyl-2-(5-((4-pentylphenyl)-ethynyl)thiophene-2-sulfonamido)propan-1-aminium 2,2,2-trifluoroacetate], for which the IC50 lay in the range of 1 to 10 µM.

In turn, `C[N+](C)(C)C[C@@H](CC(=O)[O-])NC(=O)c1ccc(COc2cccc3ccccc23)o1` [Example S58, (R)-3-(5-((naphthalen-1-yloxy)methyl)furan-2-carboxamido)-4-(trimethyl-ammonio)butanoate] returned a concentration for half-maximal inhibition (IC50) of 1 to 10 µM.

In the case of `CCCCCCCCc1ccc(N(C)S(=O)(=O)N[C@H](CC(=O)O)C[N+](C)(C)C)cc1` [Example S93, (R)-3-(N-methyl-N-(4-octylphenyl)sulfamoylamino)-4-(trimethylammonio)-butanoate], the IC50 was 10 to 100 µM.

As to `CCOc1ccc(S(=O)(=O)N[C@H](CC(=O)O)C[N+](C)(C)C)cc1NC(=O)N1CCOCC1` [Example S74, (R)-3-carboxy-2-(4-ethoxy-3-(morpholine-4-carboxamido)phenyl-sulfonamido)-N,N,N-trimethylpropan-1-aminium 2,2,2-trifluoroacetate], the IC50 is above 2500 µM.

With `C[N+](C)(C)C[C@@H](CC(=O)[O-])NC(=O)Nc1cccc(Cc2ccccc2)c1` [Example S86, (R)-3-(3-(3-benzylphenyl)ureido)-4-(trimethylammonio)butanoate], the IC50 was 100 to 1000 µM.

As to `C[N+](C)(C)C[C@@H](CC(=O)[O-])NC(=O)Nc1cccc(Oc2ccccc2)c1` [Example S38, (R)-3-(3-(3-Phenoxyphenyl)ureido)-4-(trimethylammonio)butanoate], the half-inhibitory concentration (IC50) lay within 100 to 1000 µM.

For `COc1ncc(C#Cc2ccc(C(=O)N[C@H](CC(=O)O)C[N+](C)(C)C)o2)cn1` [Example S117], the IC50 lay in the range of 100 to 1000 µM.

In the case of `CCCCCCCCc1cccc(NS(=O)(=O)N[C@H](CC(=O)[O-])C[N+](C)(C)C)c1` [Example S111, (R)-3-(N-(3-octylphenyl)sulfamoylamino)-4-(trimethylammonio)-butanoate], the IC50 is at most 1 µM.

`C[N+](C)(C)C[C@@H](CC(=O)O)NS(=O)(=O)c1ccc(Oc2ccccc2)nc1` [Example S19, (R)-3-carboxy-N,N,N-trimethyl-2-(6-phenoxypyridine-3-sulfonamido)propan-1-aminium 2,2,2-trifluoroacetate]: the concentration for half-maximal inhibition (IC50) was in the range of 100 to 1000 µM.

`C[N+](C)(C)C[C@@H](CC(=O)[O-])NC(=O)c1ccc(CN2CCOCC2)o1` [Example S59, (R)-3-(5-(morpholinomethyl)furan-2-carboxamido)-4-(trimethylammonio)-butanoate] registered an IC50 of 1000 to 2500 µM.

With `C[N+](C)(C)C[C@@H](CC(=O)O)NS(=O)(=O)c1ccc(-c2ccccn2)s1` [Example S21, (R)-3-(5-(pyridin-2-yl)thiophene-2-sulfonamido)-4-(trimethylammonio)-butanoate 2,2,2-trifluoroacetate], the 50% inhibitory concentration (IC50) lay in the range of 1000 to 2500 µM.

`C[N+](C)(C)C[C@@H](CC(=O)[O-])NC(=O)c1cccc(C#Cc2ccccc2)c1` [Example S48, (R)-3-(3-(phenylethynyl)benzamido)-4-(trimethylammonio)butanoate] had a half-inhibitory concentration (IC50) of 100 to 1000 µM.

For `CCCCCCc1ccc(C#Cc2ccc(C(=O)N[C@H](CC(=O)O)C[N+](C)(C)C)o2)s1` [Example S118, (R)-3-carboxy-2-(5-((5-hexylthiophen-2-yl)ethynyl)furan-2-carboxamido)-N,N,N-trimethylpropan-1-aminium 2,2,2-trifluoroacetate], the half-inhibitory concentration (IC50) is 1 to 10 µM.

Regarding `CCCc1ccc(OCc2ccc(C(=O)N[C@H](CC(=O)[O-])C[N+](C)(C)C)o2)c(OC)c1` [Example S55, (R)-3-(5-((2-methoxy-4-propylphenoxy)methyl)furan-2-carboxamido)-4-(trimethylammonio)butanoate], the half-inhibitory concentration (IC50) is 10 to 100 µM.

In the case of `Cc1cccc(OCc2ccc(C(=O)N[C@H](CC(=O)[O-])C[N+](C)(C)C)o2)c1` [Example S70, (R)-3-(5-(m-tolyloxymethyl)furan-2-carboxamido)-4-(trimethylammonio)-butanoate], the IC50 lay in the range of 1 to 10 µM.

With `C[N+](C)(C)C[C@@H](CC(=O)O)NC(=O)c1cccc(-c2cc[nH]n2)c1` [Example S57, (R)-3-(3-(1H-pyrazol-3-yl)benzamido)-4-(trimethylammonio)butanoate trifluoroacetate], the half-inhibitory concentration (IC50) was above 2500 µM.

`CCCCCc1ccc(C#Cc2ccc(C(=O)N[C@H](CC(=O)[O-])C[N+](C)(C)C)o2)cc1` [Example S115, (R)-3-carboxy-N,N,N-trimethyl-2-(5-((4-pentylphenyl)ethynyl)furan-2-carboxamido)propan-1-aminium 2,2,2-trifluoroacetate] had an IC50 of at most 1 µM.

`CCCCCCC#Cc1ccc(NS(=O)(=O)N[C@H](CC(=O)[O-])C[N+](C)(C)C)cc1` [Example S106, (R)-3-(N-(4-(oct-1-ynyl)phenyl)sulfamoylamino)-4-(trimethylammonio) butanoate]: the IC50 lay in the range of 1 to 10 µM.
